Assay results from ChEMBL document CHEMBL1201862, “PubChem BioAssay data set” (2004).
Active and inactive are the calls of the source.

How the values were obtained:
[1] = fluconazole-exposed Candida albicans growth modulators – fluorescence, retest, confirmation (AID 2467); format: functional, cell-based
[2] = tested on: A-375; test: MITF: Counter assay: A375 proliferation Measured in Cell-Based System Using Plate Reader - 2084-03_Inhibitor_Dose_DryPowder_Activity. [Related pubchem assays (depositor defined):AID488944]; format: functional; settings: Homo sapiens
[3] = NIH-3T3 fibroblast cytotoxicity, dose response, cytotoxicity control, cell-based, fluorescence, Alamar Blue, secondary assay (AID 2327); format: functional;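 note: NIH-3T3 mouse fibroblasts cultured with fluconazole at 8 µg/mL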
[4] = tested on: INS1; test: INS-1E survival protection against cytokine death – cell-based, luminescence, retest, dose response (AID 449756); format: functional; settings: Rattus norvegicus;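 note: cell death triggered by IL-1 beta plus TNF-alpha plus IFN-gamma mixture; protective hits raise ATP signal compared with cytokine alone wells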
[5] = MIN6 cell viability loss – mouse insulinoma, cytotoxicity control, dose response (AID 2122); format: functional;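 note: confirmatory high-throughput counterscreen run to flag cytotoxic compounds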
[6] = target: T1, Microphthalmia-associated transcription factor (Homo sapiens, UniProt O75030); test: reducers of TRPM1 reporter luminescence, concentration series – cell-based, SK-MEL-5, cherry-picked, set 3, MITF inhibitor project, dose response (AID 493073); format: functional;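 note: SK-MEL-5 melanoma cells with luciferase driven by the MITF target TRPM1 promoter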
T1 sequence (O75030 whole entry): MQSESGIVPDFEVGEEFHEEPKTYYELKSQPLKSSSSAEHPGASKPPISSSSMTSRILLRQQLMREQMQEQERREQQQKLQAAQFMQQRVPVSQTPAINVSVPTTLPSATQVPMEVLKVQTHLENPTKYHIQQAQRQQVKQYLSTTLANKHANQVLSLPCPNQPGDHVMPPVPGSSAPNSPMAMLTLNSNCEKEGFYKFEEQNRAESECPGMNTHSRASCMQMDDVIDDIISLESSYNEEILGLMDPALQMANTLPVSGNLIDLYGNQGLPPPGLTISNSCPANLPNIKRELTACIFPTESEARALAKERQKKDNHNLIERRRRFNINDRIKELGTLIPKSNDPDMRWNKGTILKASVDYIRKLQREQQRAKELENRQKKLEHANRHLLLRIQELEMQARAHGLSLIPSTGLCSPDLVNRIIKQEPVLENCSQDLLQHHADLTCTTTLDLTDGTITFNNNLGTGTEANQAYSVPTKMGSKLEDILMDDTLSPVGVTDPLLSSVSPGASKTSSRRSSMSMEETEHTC

[7] = decrease of insulin promoter-GFP reporter – imaging, high-content screening, mouse beta cells (AID 1628); format: functional; settings: MIN6
[8] = tested on: HEK293; test: cells; format: functional, cell-based; settings: Homo sapiens
[9] = target: Nuclear receptor subfamily 0 group B member 1 (Homo sapiens, UniProt P51843); test: Luminescence-based cell-based high throughput dose response assay for inhibitors of the orphan nuclear receptor subfamily 0, group B, member 1 (DAX1; NR0B1). [Related pubchem assays (depositor defined):AID504766, AID504790]; format: functional
Sequence of Nuclear receptor subfamily 0 group B member 1 (P51843 whole entry): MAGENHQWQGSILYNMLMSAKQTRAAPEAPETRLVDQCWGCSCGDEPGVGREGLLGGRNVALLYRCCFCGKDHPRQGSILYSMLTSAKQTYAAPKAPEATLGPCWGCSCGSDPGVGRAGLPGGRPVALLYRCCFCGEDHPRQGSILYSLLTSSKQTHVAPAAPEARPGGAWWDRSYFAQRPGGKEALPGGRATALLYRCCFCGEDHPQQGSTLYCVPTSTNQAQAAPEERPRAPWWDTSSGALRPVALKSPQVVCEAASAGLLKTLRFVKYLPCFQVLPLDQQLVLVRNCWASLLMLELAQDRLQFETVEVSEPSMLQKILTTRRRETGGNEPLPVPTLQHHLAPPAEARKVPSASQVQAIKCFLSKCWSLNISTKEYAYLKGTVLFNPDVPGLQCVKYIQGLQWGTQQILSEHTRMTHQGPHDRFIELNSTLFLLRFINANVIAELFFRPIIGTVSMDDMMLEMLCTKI

[10] = tested on: Jurkat; test: blockers of NF-kB activation in T cells – Jurkat, luciferase reporter, luminescence, B- and T-cell, dose response (AID 489004); format: functional, cell-based; settings: Homo sapiens;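 note: NF-kB luciferase reporter Jurkat cells stimulated with PMA plus ionomycin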
[11] = target: Photoreceptor-specific nuclear receptor (Homo sapiens, UniProt Q9Y5X4); format: functional, cell-based;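 note: CHO-S cells with Gal4-NCOR and VP16-NR2E3 two-hybrid luciferase reporter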
Sequence of Photoreceptor-specific nuclear receptor (Q9Y5X4 whole entry, the tested form may be a part): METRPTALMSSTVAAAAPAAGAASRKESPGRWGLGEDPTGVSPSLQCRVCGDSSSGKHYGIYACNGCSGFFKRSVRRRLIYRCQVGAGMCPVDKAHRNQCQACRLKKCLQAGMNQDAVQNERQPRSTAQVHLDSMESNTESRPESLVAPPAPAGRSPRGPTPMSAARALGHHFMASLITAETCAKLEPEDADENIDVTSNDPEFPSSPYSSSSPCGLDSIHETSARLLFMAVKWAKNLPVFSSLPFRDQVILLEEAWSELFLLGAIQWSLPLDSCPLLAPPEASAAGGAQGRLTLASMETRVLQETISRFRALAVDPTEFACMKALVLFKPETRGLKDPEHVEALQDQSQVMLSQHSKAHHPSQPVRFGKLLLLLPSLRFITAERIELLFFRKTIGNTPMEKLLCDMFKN

[12] = loss of viability in HepG2 cells – cell-based, CellTiter-Glo, cherry-picked, cytotoxicity control for Shn3 inhibitor project, dose response (AID 624134); format: functional
[13] = non-specific 3'UTR reporter inhibition in Clone20-Shn3RL – cell-based, Renilla luciferase, cherry-picked, counter-screen for Shn3 inhibitor project, dose response (AID 624133); format: functional
[14] = reduction of Shn3 3'UTR-driven luciferase in osteoblasts – cell-based, Clone20 osteoblasts, firefly luciferase, cherry-picked, dose response (AID 624132); format: functional;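 note: firefly luciferase luminescence from reporter carrying the Shn3 3'UTR in osteoblasts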
[15] = HEK-293T viability loss, compound-treated – cell-based, uHTS hits, cytotoxicity control for B/T-cell NF-kB inhibitor project, dose response (AID 489019); format: functional;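 note: IC50 reflects cytotoxicity as loss of cell viability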
[16] = target: T2, Short transient receptor potential channel 4 (Mus musculus, UniProt Q9QUQ5); test: mouse TRPC4 block via Gq-coupled stimulation – cell-based, acetylcholine stimulus, HEK293 TRPC4, Fluo-4, SAR follow-up (AID 492996); format: functional
T2 sequence (Q9QUQ5 whole entry): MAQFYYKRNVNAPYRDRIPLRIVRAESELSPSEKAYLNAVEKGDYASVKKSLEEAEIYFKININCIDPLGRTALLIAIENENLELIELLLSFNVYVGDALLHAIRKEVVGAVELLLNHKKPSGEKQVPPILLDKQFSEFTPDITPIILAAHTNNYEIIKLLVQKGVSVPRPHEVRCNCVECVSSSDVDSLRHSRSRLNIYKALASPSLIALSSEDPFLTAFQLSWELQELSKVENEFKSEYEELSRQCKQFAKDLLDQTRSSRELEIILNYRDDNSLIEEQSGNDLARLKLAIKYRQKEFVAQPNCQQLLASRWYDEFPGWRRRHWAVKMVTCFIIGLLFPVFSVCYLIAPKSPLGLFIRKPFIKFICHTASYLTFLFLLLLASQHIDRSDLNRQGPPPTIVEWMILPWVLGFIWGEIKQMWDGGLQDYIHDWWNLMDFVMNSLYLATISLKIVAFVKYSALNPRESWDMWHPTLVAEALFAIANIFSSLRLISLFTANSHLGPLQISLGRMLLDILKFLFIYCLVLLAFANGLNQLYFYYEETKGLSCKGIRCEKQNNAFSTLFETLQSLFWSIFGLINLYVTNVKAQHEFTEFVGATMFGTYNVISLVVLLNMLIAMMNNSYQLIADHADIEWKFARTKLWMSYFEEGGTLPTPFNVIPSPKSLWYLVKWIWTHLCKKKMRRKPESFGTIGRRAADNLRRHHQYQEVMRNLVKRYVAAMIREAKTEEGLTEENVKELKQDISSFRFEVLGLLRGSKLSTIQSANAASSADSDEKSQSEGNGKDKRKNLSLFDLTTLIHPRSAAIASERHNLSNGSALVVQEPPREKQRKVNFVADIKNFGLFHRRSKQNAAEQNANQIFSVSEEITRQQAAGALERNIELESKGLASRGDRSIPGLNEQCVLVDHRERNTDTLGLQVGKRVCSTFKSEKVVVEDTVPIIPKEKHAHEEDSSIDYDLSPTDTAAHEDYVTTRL

[17] = tested on: INS1; test: INS-1E mitochondrial potential loss inhibitors – cell-based, JC-1 fluorescence, dry powder, set 2, dose response (AID 488867); format: functional; settings: Rattus norvegicus
[18] = tested on: INS1; test: beta-cell survival under cytokine stress – INS-1E, ATP luminescence, dry powder, dose response (AID 488844); format: functional, cell-based; settings: Rattus norvegicus
[19] = suppression of NO production in INS-1E cells – cell-based, Griess absorbance, dry powder, set 3, dose response (AID 488870); format: functional; settings: Rattus norvegicus

For `COc1ccc(-c2c[n+](CC(=O)OC3CC(C)CCC3C(C)C)c3n2CCC3)cc1` (centres undefined), the EC50 [1] was 0.894 µM (active), the AC50 [2] was 35 µM (active) and the EC50 [3] was > 150 µM (inactive). The AC50 [4] was 1.78 µM (active), the IC50 [5] was < 0.25 µM (active) and the AC50 [6] was 4.87 µM (active). For the same molecule, the IC50 [7] was < 0.25 µM (active).

In the case of `Nn1c(SCc2c(F)cccc2F)nnc1-c1ccccn1`, the IC50 [8] is reported as > 67.6 µM (inactive) and the IC50 [9] is reported as > 67.6 µM (inactive).

In the case of `Cc1cc2sc3ccc(C#CC4(O)CCCCC4)cc3c(=O)c2cc1C`, the IC50 [10] is reported as < 0.16 µM (active), the IC50 [11] is reported as 0.0182 µM (active) and the AC50 [12] is reported as 42 µM (active). For the same molecule, the AC50 [13] was 25 µM (active), the AC50 [14] was < 0.26 µM (active) and the IC50 [15] was > 80 µM (inactive).

In the case of `Cc1cc(N2CCN(C)CC2)nc2ccccc12`, the IC50 [16] is reported as 31.7 µM (active).

In the case of `Cc1ccc(S(=O)(=O)N(C)C[C@@H]2Oc3c(NC(=O)Nc4ccc(F)cc4)cccc3C(=O)N([C@H](C)CO)C[C@H]2C)cc1`, the AC50 [17] is reported as 106 µM (active), the AC50 [18] is reported as 73.9 µM (active) and the AC50 [19] is reported as 63.4 µM (active).
